# Target: T1, Hepatitis A virus cellular receptor 2 (Homo sapiens, UniProt Q8TDQ0)
# T1 sequence (Q8TDQ0 whole entry): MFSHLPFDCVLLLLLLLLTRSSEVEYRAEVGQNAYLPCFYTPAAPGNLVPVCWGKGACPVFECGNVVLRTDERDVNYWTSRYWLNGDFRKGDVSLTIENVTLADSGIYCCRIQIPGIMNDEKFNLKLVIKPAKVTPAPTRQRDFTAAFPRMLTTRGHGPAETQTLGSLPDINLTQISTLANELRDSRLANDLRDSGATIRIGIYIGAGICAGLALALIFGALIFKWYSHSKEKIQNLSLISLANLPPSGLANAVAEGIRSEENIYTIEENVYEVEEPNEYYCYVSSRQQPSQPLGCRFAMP
# Details: not given
row,Structure (SMILES),Kd [µM]
1,Cc1ccc(Nc2ncnc3c2cnn3C)cc1,850
2,Cc1nc2c3cc(-c4ccncc4C)c(Cl)cc3[nH]c(=O)n2n1,10
3,Cc1cccc(Nc2cc(=O)n(C)c(=O)n2C)c1,1400
4,Sc1nc2cc(Cl)ccc2[nH]1,670
5,Cc1cc(-c2nc3ncccc3o2)ccc1N,460
6,O=C1CC(c2ccccc2)c2cc3c(cc2N1)OCO3 (stereo not drawn),> 2000
7,CN(C)CCn1c(=S)[nH]c2ccccc2c1=O,530
8,Oc1nc2ccccc2c2nc(-c3ccccc3)nn12,> 2000

# Tested on: not listed separately
# Experiment: Aqueous solubility of the compound
# Type: physicochemical
# Details: buffer
row,Structure (SMILES),solubility
1,Cc1nc2c3cc(Br)ccc3[nH]c(=O)n2n1,Insoluble
2,Cc1nc2c3cc(-c4ccncc4C)ccc3[nH]c(=O)n2n1,Insoluble
3,Oc1nc2ccccc2c2nc(-c3ccccc3)nn12,Insoluble

# Target: T1, Hepatitis A virus cellular receptor 2
# Experiment: Displacement of FITC-labelled 5-(((8-Chloro-9-(3-methylpyridin-4-yl)-5-oxo-5,6-dihydro-[1,2,4]triazolo[1,5-c]quinazolin-2-yl)methyl)carbamoyl)-2-(6-hydroxy-3-oxo-3H-xanthen-9-yl)benzoic acid probe from human TIM-3 IgV domain (residues 22 to 130) expressed in Escherichia coli BL21 (DE3) by FPA competition assay
# Details: not given
Structure (SMILES),IC50 [µM],Ki [µM]
Cc1nc2c3cc(-c4ccncc4C)c(Cl)cc3[nH]c(=O)n2n1,53,4.9
